The test system of the test is serotonin 5-HT1A receptor. The test can be described thus: in vivo PET displacement of [carbonyl-11C]WAY-100635. Set-up: species or system Macaca fascicularis. Particulars: 300 µg/kg i.v. cariprazine, raphe nuclei, ketamine/xylazine anaesthesia.

The structures appear in SMILES notation.

serotonin 5-HT1A receptor, sequence (UPI0032B04AFA 1-422): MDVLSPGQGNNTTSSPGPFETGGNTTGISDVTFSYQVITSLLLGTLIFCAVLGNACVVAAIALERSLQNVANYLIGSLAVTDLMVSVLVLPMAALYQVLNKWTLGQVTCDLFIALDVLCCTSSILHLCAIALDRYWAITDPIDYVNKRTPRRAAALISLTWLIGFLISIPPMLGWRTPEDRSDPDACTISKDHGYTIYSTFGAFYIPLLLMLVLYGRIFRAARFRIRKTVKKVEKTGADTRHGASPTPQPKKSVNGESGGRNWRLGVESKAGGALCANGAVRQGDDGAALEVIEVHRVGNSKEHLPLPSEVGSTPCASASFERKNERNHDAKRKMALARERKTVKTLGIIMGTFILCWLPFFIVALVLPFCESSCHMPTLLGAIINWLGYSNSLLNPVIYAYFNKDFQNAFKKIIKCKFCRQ

On to `CN(C)C(=O)N[C@H]1CC[C@H](CCN2CCN(c3cccc(Cl)c3Cl)CC2)CC1` [cariprazine], for which the “Receptor occupancy (%) / Cariprazine (μg/kg) / 300” value was 30%.

The record behind these values is PMC3210913 (Psychopharmacology, 2011).
